Data as given in PubChem BioAssay (NCI).
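Compound exposure: 48 hours, 5 concentrations, 96-well plates. GI50 is the concentration that inhibits growth by half. At the TGI there is no net growth.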

Assays:
Experiment in all cases: DTP human tumour cell line panel, 48 h
786-0 renal = tested on: 786-0 renal
A549 NSCLC = tested on: A549 NSCLC
ACHN renal = tested on: ACHN renal
BT-549 breast = tested on: BT-549 breast
CAKI-1 renal = tested on: CAKI-1 renal
COLO 205 colon = tested on: COLO 205 colon
EKVX NSCLC = tested on: EKVX NSCLC
HCT-116 colon = tested on: HCT-116 colon
HCT-15 colon = tested on: HCT-15 colon
HL-60(TB) leukemia = tested on: HL-60(TB) leukemia
HOP-62 NSCLC = tested on: HOP-62 NSCLC
HOP-92 NSCLC = tested on: HOP-92 NSCLC
HT29 colon = tested on: HT29 colon
IGROV1 ovarian = tested on: IGROV1 ovarian
K-562 leukemia = tested on: K-562 leukemia
KM12 colon = tested on: KM12 colon
LOX IMVI melanoma = tested on: LOX IMVI melanoma
M14 melanoma = tested on: M14 melanoma
MALME-3M melanoma = tested on: MALME-3M melanoma
MCF7 breast = tested on: MCF7 breast
MDA-MB-231 breast = tested on: MDA-MB-231 breast
MDA-MB-435 = tested on: MDA-MB-435
MOLT-4 leukemia = tested on: MOLT-4 leukemia
NCI-H23 lung = tested on: NCI-H23 lung
NCI-H460 lung = tested on: NCI-H460 lung
NCI-H522 lung = tested on: NCI-H522 lung
NCI/ADR-RES ovarian = tested on: NCI/ADR-RES ovarian
OVCAR-3 ovarian = tested on: OVCAR-3 ovarian
OVCAR-8 ovarian = tested on: OVCAR-8 ovarian
PC-3 prostate = tested on: PC-3 prostate
RPMI-8226 leukemia = tested on: RPMI-8226 leukemia
RXF 393 renal = tested on: RXF 393 renal
SF-268 CNS = tested on: SF-268 CNS
SF-295 CNS = tested on: SF-295 CNS
SK-MEL-2 melanoma = tested on: SK-MEL-2 melanoma
SK-MEL-28 melanoma = tested on: SK-MEL-28 melanoma
SK-MEL-5 melanoma = tested on: SK-MEL-5 melanoma
SK-OV-3 ovarian = tested on: SK-OV-3 ovarian
SN12C renal = tested on: SN12C renal
SNB-19 CNS = tested on: SNB-19 CNS
SNB-75 CNS = tested on: SNB-75 CNS
SR leukemia = tested on: SR leukemia
SW-620 colon = tested on: SW-620 colon
T-47D breast = tested on: T-47D breast
TK-10 renal = tested on: TK-10 renal
U251 CNS = tested on: U251 CNS
UACC-257 melanoma = tested on: UACC-257 melanoma
UACC-62 melanoma = tested on: UACC-62 melanoma
UO-31 renal = tested on: UO-31 renal
A498 renal = tested on: A498 renal
DU-145 prostate = tested on: DU-145 prostate
HCC-2998 colon = tested on: HCC-2998 colon
HS 578T breast = tested on: HS 578T breast
OVCAR-5 ovarian = tested on: OVCAR-5 ovarian
SF-539 CNS = tested on: SF-539 CNS

N#CC1=C(N)NC(=S)C(C#N)C12Nc1ccccc1S2 (stereo not drawn)
GI50 (786-0 renal): 25.4 µM | TGI (786-0 renal): 68.9 µM | GI50 (A549 NSCLC): 23.1 µM | TGI (A549 NSCLC): 53.1 µM | GI50 (ACHN renal): 9.82 µM | TGI (ACHN renal): 29.4 µM | GI50 (BT-549 breast): 21.7 µM | TGI (BT-549 breast): 49.1 µM | GI50 (CAKI-1 renal): 11 µM | TGI (CAKI-1 renal): 35.1 µM | GI50 (COLO 205 colon): 25.5 µM | TGI (COLO 205 colon): 60.6 µM | GI50 (EKVX NSCLC): 0.793 µM | TGI (EKVX NSCLC): 8.04 µM | GI50 (HCT-116 colon): 18.5 µM | TGI (HCT-116 colon): 41.7 µM | GI50 (HCT-15 colon): 15 µM | TGI (HCT-15 colon): 42.3 µM | GI50 (HL-60(TB) leukemia): 35.1 µM | TGI (HL-60(TB) leukemia): > 100 µM | GI50 (HOP-62 NSCLC): 17.6 µM | TGI (HOP-62 NSCLC): 72.4 µM | GI50 (HOP-92 NSCLC): 60.8 µM | TGI (HOP-92 NSCLC): > 100 µM | GI50 (HT29 colon): 29.3 µM | TGI (HT29 colon): 77.7 µM | GI50 (IGROV1 ovarian): 29.3 µM | TGI (IGROV1 ovarian): 72.5 µM | GI50 (K-562 leukemia): 48.2 µM | TGI (K-562 leukemia): > 100 µM | GI50 (KM12 colon): 24.8 µM | TGI (KM12 colon): > 100 µM | GI50 (LOX IMVI melanoma): 13.5 µM | TGI (LOX IMVI melanoma): 32.6 µM | GI50 (M14 melanoma): 16.1 µM | TGI (M14 melanoma): 32 µM | GI50 (MALME-3M melanoma): 30.5 µM | TGI (MALME-3M melanoma): 84 µM | GI50 (MCF7 breast): 8.14 µM | TGI (MCF7 breast): > 100 µM | GI50 (MDA-MB-231 breast): 11 µM | TGI (MDA-MB-231 breast): 32.9 µM | GI50 (MDA-MB-435): 17.2 µM | TGI (MDA-MB-435): 44.7 µM | GI50 (MOLT-4 leukemia): > 100 µM | TGI (MOLT-4 leukemia): > 100 µM | GI50 (NCI-H23 lung): 13.4 µM | TGI (NCI-H23 lung): 33.2 µM | GI50 (NCI-H460 lung): 16.7 µM | TGI (NCI-H460 lung): > 100 µM | GI50 (NCI-H522 lung): 16.2 µM | TGI (NCI-H522 lung): 35.6 µM | GI50 (NCI/ADR-RES ovarian): 14.3 µM | TGI (NCI/ADR-RES ovarian): 43.7 µM | GI50 (OVCAR-3 ovarian): 12.6 µM | TGI (OVCAR-3 ovarian): 40.1 µM | GI50 (OVCAR-8 ovarian): 27.2 µM | TGI (OVCAR-8 ovarian): 65 µM | GI50 (PC-3 prostate): 41 µM | TGI (PC-3 prostate): > 100 µM | GI50 (RPMI-8226 leukemia): 61.6 µM | TGI (RPMI-8226 leukemia): > 100 µM | GI50 (RXF 393 renal): 27.7 µM | TGI (RXF 393 renal): 57.5 µM | GI50 (SF-268 CNS): 14.8 µM | TGI (SF-268 CNS): 42.9 µM | GI50 (SF-295 CNS): 19.5 µM | TGI (SF-295 CNS): 47.8 µM | GI50 (SK-MEL-2 melanoma): 29.3 µM | TGI (SK-MEL-2 melanoma): 58.1 µM | GI50 (SK-MEL-28 melanoma): 24.3 µM | TGI (SK-MEL-28 melanoma): 56.7 µM | GI50 (SK-MEL-5 melanoma): 12.8 µM | TGI (SK-MEL-5 melanoma): 26.7 µM | GI50 (SK-OV-3 ovarian): 27.1 µM | TGI (SK-OV-3 ovarian): 77.8 µM | GI50 (SN12C renal): 14.4 µM | TGI (SN12C renal): 33.2 µM | GI50 (SNB-19 CNS): 25.8 µM | TGI (SNB-19 CNS): > 100 µM | GI50 (SNB-75 CNS): 28.1 µM | TGI (SNB-75 CNS): 73 µM | GI50 (SR leukemia): 78.9 µM | TGI (SR leukemia): > 100 µM | GI50 (SW-620 colon): 19.1 µM | TGI (SW-620 colon): 42.3 µM | GI50 (T-47D breast): 32.9 µM | TGI (T-47D breast): 98.4 µM | GI50 (TK-10 renal): 14.4 µM | TGI (TK-10 renal): 46.6 µM | GI50 (U251 CNS): 18.3 µM | TGI (U251 CNS): 40.2 µM | GI50 (UACC-257 melanoma): 19.6 µM | TGI (UACC-257 melanoma): 35.4 µM | GI50 (UACC-62 melanoma): 18 µM | TGI (UACC-62 melanoma): 33.4 µM | GI50 (UO-31 renal): 17.6 µM | TGI (UO-31 renal): 38.5 µM

CCc1ccc(OCc2ccccc2C(=O)Nc2ccc3nc(C)cc(N)c3c2)cc1
GI50 (A498 renal): 1.5 µM | TGI (A498 renal): 3 µM | GI50 (A549 NSCLC): 1.56 µM | TGI (A549 NSCLC): 3.27 µM | GI50 (ACHN renal): 1.73 µM | TGI (ACHN renal): 3.13 µM | GI50 (COLO 205 colon): 0.24 µM | TGI (COLO 205 colon): 0.692 µM | GI50 (DU-145 prostate): 1.68 µM | TGI (DU-145 prostate): 3.17 µM | GI50 (HCC-2998 colon): 1.64 µM | TGI (HCC-2998 colon): 3.24 µM | GI50 (HOP-62 NSCLC): 1.77 µM | TGI (HOP-62 NSCLC): 3.31 µM | GI50 (HOP-92 NSCLC): 1.16 µM | TGI (HOP-92 NSCLC): 2.55 µM | GI50 (HS 578T breast): 1.79 µM | TGI (HS 578T breast): 4.38 µM | GI50 (MALME-3M melanoma): 1.74 µM | TGI (MALME-3M melanoma): 3.35 µM | GI50 (MDA-MB-231 breast): 0.846 µM | TGI (MDA-MB-231 breast): 2.25 µM | GI50 (MDA-MB-435): 1.43 µM | TGI (MDA-MB-435): 2.77 µM | GI50 (NCI/ADR-RES ovarian): 1.75 µM | TGI (NCI/ADR-RES ovarian): 4.2 µM | GI50 (OVCAR-3 ovarian): 1.62 µM | TGI (OVCAR-3 ovarian): 3.04 µM | GI50 (OVCAR-5 ovarian): 1.62 µM | TGI (OVCAR-5 ovarian): 3.14 µM | GI50 (OVCAR-8 ovarian): 1.68 µM | TGI (OVCAR-8 ovarian): 4.61 µM | GI50 (PC-3 prostate): 1.52 µM | TGI (PC-3 prostate): 2.93 µM | GI50 (RXF 393 renal): 1.32 µM | TGI (RXF 393 renal): 2.75 µM | GI50 (SF-295 CNS): 1.65 µM | TGI (SF-295 CNS): 3.13 µM | GI50 (SF-539 CNS): 1.59 µM | TGI (SF-539 CNS): 3.04 µM | GI50 (SK-MEL-2 melanoma): 1.79 µM | TGI (SK-MEL-2 melanoma): 3.39 µM | GI50 (SK-MEL-28 melanoma): 1.75 µM | TGI (SK-MEL-28 melanoma): 3.29 µM | GI50 (SK-MEL-5 melanoma): 1.54 µM | TGI (SK-MEL-5 melanoma): 2.91 µM | GI50 (SK-OV-3 ovarian): 1.64 µM | TGI (SK-OV-3 ovarian): 3 µM | GI50 (SN12C renal): 1.51 µM | TGI (SN12C renal): 3.02 µM | GI50 (SNB-75 CNS): 1.28 µM | TGI (SNB-75 CNS): 2.59 µM | GI50 (TK-10 renal): 1.68 µM | TGI (TK-10 renal): 3.17 µM | GI50 (UACC-257 melanoma): 1.83 µM | TGI (UACC-257 melanoma): 3.37 µM | GI50 (UACC-62 melanoma): 1.6 µM | TGI (UACC-62 melanoma): 3.02 µM | GI50 (UO-31 renal): 1.44 µM | TGI (UO-31 renal): 2.84 µM
